In article PMC5623949, “Exploiting the 2-Amino-1,3,4-thiadiazole Scaffold To Inhibit Trypanosoma brucei Pteridine Reductase in Support of Early-Stage Drug Discovery” (ACS Omega, 2017):
Where two headings read alike, the source gives them in different places.

Columns and labels:
hDHFR = biological target: T1, hDHFR (Homo sapiens, UniProt P00374); experiment: biochemical; parameters: human DHFR enzyme inhibition
T1 construct: gene DHFR
T1 sequence (P00374 1-187): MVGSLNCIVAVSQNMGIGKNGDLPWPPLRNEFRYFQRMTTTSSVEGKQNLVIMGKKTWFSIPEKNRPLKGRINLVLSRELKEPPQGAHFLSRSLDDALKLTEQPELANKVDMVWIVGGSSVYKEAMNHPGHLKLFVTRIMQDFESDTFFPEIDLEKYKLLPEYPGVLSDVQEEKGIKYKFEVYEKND
Protocol: Figure 10 Summary heat map of the in vitro assays to determine possible liability issues for all synthesized compounds. Assays were performed to assess inhibition of hERG and five CYP isoforms (1A2, 2C9, 2C19, 2D6, and 3A4), growth inhibition of A549 and W1-38 cell lines, and mitochondrial toxicity at 10 μM. The hDHFR inhibition was determined at 100 μM. The data, expressed as percentage values, were organized by adopting a color code for rapid and intuitive visualization. The ideal compound should have all tiles blue, indicating a safe toxicological profile for progressing into the development pipeline. The cells are colored from blue (100% of cell growth at the tested concentration) to red (0% of cell growth at the tested concentration) for A549 and W1-38 and from blue (0% of inhibitory activity at the tested concentration) to red (100% of inhibitory activity at the tested concentration) for CYP isoforms, hERG, hDHFR, and mitochondrial toxicity.

CYP1A2 = biological target: T2, CYP1A2 (Homo sapiens, UniProt P05177); experiment: in vitro; parameters: cytochrome P450 isoform inhibition liability assay
T2 sequence (P05177 1-516): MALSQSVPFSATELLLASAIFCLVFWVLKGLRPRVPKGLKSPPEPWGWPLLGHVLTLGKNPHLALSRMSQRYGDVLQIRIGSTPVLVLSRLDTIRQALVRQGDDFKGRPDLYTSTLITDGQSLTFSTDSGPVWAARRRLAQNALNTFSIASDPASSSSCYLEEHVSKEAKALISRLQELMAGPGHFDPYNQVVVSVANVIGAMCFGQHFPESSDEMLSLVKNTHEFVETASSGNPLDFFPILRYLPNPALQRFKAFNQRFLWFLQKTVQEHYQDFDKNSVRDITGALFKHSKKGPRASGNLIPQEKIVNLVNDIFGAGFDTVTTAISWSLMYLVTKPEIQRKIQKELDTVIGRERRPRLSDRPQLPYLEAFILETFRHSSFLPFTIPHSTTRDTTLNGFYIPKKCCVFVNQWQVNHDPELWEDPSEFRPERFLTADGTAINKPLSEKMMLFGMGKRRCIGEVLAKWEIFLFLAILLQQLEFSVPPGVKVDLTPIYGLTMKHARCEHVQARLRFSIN

CYP2D6 = CYP2D6 (Homo sapiens, UniProt P10635); experiment: in vitro; parameters: cytochrome P450 isoform inhibition liability assay
CYP2C9 = CYP2C9 (Homo sapiens, UniProt P11712); experiment: in vitro; parameters: cytochrome P450 isoform inhibition liability assay
CYP3A4 = CYP3A4 (Homo sapiens, UniProt P08684); experiment: in vitro; parameters: cytochrome P450 isoform inhibition liability assay
CYP2C19 = CYP2C19 (Homo sapiens, UniProt P33261); experiment: in vitro; parameters: cytochrome P450 isoform inhibition liability assay
[1] = test system: T. b. brucei Lister 427 bloodstream forms; experiment: In vitro activity against T. brucei (HTS SYBR Green I growth inhibition assay); format: cell-based, Trypanosoma brucei brucei; conditions: standard deviation within ±10% of the value; for EC50 / inhibition at 50 µM: Trypanosoma brucei; for EC50: read-out: EC50 T. brucei; for inhibition at 50 µM: read-out: % Inhibition T. brucei at 50 μM
in vitro [2] = experiment: in vitro; parameters: cytotoxicity, per cent cell growth of WI-38 fibroblasts; conditions: human, wi-38 cells; read-out: % cell growth W1-38 at 10uM
hERG = biological target: T3, hERG (Homo sapiens, UniProt Q12809); parameters: hERG inhibition liability assay
T3 construct: gene KCNH2

TbPTR1 = biological target: T4, TbPTR1 (Trypanosoma brucei brucei, UniProt O76290); experiment: biochemical; conditions: for inhibition at 50 µM: read-out: % Inhibition TbPTR1 at 50 μM; for IC50: dose-response 0.001-100 μM
T4 construct: made in house
T4 sequence (O76290 1-268): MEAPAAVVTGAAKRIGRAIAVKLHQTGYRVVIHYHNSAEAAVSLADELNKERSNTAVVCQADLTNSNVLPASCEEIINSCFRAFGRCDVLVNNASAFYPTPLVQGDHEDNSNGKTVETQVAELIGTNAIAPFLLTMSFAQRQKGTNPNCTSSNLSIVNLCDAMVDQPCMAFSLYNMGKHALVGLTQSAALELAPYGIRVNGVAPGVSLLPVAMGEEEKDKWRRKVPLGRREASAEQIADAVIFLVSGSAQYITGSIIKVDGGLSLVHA

786-O = experiment: cells; parameters: mitochondrial toxicity in 786-O renal carcinoma cells; conditions: Homo sapiens, 786-0; mitochondrial toxicity
in vitro [3] = experiment: in vitro; parameters: cytotoxicity, per cent cell growth of A549 cells; conditions: human, a549 cells; read-out: % cell growth A549 at 10uM

Sequence of CYP2D6 (P10635 whole entry, canonical isoform): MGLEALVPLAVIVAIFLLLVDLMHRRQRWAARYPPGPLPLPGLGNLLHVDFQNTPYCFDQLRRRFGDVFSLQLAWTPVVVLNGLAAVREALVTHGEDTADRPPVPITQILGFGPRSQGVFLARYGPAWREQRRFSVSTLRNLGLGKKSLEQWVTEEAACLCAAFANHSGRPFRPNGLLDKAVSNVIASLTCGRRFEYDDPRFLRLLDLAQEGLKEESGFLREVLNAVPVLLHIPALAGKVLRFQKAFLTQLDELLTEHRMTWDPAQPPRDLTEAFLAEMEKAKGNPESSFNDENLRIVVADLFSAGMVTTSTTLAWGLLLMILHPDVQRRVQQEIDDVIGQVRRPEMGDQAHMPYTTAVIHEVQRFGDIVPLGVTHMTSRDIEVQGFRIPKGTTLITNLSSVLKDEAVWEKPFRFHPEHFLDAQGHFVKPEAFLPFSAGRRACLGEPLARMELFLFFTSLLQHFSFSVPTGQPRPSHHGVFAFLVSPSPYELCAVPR
T3 sequence (Q12809 whole entry): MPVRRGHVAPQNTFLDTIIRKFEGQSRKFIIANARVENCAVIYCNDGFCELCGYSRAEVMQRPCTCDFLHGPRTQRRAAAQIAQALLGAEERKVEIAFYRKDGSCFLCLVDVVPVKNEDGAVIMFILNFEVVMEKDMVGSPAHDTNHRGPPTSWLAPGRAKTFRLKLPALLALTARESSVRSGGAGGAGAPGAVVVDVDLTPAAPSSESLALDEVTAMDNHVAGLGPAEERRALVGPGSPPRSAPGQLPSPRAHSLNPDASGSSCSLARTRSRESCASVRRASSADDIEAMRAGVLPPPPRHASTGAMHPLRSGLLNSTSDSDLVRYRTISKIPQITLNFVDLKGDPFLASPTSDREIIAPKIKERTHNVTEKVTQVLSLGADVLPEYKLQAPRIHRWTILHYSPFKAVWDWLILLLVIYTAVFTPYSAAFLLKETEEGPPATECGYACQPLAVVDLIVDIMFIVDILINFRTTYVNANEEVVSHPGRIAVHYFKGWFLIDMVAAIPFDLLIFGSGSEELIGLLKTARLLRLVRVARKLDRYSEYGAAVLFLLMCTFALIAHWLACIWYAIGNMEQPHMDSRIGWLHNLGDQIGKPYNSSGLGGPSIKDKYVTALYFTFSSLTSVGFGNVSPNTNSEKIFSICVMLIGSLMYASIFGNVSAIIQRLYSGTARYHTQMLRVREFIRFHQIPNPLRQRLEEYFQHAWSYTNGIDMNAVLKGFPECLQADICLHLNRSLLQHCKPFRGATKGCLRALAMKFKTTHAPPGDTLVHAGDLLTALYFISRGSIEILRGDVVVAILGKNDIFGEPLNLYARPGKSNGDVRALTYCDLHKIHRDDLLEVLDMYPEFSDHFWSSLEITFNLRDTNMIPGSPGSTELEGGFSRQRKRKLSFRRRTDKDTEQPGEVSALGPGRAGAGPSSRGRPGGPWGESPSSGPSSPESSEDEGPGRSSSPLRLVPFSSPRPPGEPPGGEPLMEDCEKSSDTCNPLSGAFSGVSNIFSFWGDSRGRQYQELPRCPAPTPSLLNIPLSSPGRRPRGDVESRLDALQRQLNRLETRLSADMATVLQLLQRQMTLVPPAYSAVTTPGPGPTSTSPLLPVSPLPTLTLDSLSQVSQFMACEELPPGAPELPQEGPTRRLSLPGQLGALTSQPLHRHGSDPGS
Sequence of CYP2C19 (P33261 whole entry, canonical isoform): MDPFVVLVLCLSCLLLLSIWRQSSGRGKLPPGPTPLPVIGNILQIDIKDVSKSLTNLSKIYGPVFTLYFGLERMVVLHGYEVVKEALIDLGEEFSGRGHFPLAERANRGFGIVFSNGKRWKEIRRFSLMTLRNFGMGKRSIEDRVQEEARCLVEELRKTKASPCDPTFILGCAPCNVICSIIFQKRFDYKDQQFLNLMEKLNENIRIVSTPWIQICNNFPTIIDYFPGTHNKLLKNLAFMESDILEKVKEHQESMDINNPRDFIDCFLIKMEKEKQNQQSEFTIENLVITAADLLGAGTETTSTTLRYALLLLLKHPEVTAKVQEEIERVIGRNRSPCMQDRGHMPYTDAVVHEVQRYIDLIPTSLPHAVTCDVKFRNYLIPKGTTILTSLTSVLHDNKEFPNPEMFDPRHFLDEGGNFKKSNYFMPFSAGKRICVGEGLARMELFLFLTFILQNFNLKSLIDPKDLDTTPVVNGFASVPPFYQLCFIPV
Sequence of CYP2C9 (P11712 whole entry, canonical isoform): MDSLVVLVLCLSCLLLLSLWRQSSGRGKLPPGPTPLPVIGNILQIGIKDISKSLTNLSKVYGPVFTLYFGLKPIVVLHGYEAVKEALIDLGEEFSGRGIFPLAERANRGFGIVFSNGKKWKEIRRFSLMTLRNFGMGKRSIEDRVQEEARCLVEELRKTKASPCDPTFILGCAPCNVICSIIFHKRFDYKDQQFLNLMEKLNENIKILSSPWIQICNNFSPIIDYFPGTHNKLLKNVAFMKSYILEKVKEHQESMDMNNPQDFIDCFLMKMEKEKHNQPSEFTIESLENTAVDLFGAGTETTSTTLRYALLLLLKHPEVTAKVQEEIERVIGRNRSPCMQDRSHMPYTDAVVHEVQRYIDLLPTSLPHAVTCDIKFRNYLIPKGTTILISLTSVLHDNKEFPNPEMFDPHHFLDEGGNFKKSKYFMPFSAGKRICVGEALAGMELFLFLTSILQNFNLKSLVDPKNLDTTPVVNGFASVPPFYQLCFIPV
Sequence of CYP3A4 (P08684 whole entry, canonical isoform): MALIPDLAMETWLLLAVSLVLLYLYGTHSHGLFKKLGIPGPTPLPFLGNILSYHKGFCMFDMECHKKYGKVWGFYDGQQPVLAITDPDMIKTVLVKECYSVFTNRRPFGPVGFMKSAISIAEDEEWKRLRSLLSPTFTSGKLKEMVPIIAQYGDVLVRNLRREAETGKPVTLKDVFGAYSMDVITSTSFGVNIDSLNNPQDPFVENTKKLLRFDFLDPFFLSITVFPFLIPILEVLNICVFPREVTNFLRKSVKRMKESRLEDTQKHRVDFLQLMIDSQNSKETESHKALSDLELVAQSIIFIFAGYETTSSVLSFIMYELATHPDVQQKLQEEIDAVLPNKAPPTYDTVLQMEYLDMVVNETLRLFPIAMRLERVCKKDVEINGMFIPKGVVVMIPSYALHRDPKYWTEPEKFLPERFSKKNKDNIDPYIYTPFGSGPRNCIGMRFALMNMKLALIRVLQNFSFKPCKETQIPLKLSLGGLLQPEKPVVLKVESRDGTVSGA

Row | SMILES | inhibition at 100 µM (hDHFR) [%] | inhibition at 10 µM (CYP1A2) [%] | inhibition at 10 µM (CYP2D6) [%] | inhibition at 10 µM (CYP2C9) [%] | inhibition at 10 µM (CYP3A4) [%] | inhibition at 10 µM (CYP2C19) [%] | % Inhibition T. brucei at 50 μM [1] [%] | EC50 [1] [µM] | viability at 10 µM (in vitro [2]) [%] | inhibition at 10 µM (hERG) [%] | % Inhibition TbPTR1 at 50 μM (TbPTR1; 50 μM compound) | inhibition at 50 µM (TbPTR1; 50 μM compound) [%] | IC50 (TbPTR1) [µM] | inhibition at 10 µM (786-O) [%] | viability at 10 µM (in vitro [3]) [%] | inhibition at 50 µM [1] [%] | inhibition at 10 µM (hDHFR) [%] | inhibition at 25 µM (hDHFR; 25 uM) [%]
1 | Nc1nnc(-c2cc(O)c(O)c(O)c2)s1 [1f, 3′,4′,5′-trihydroxy-phenyl-1,3,4-thiadiazole] | 31 | 71.4 ± 6.9 | -6 ± 7.3 | 38.2 ± 5.4 | 67.7 ± 3.1 | 67.4 ± 7.3 | 100.0 | 1 | 111 ± 12.9 | 3.3 ± 2.2 | did not show inhibition | 44.9 ± 0.9 | 41 | -9.6 ± 7.9 | 118 ± 3.1 |  |  | 
2 | Nc1nnc(-c2ccc(O)c(O)c2)s1 [1d, 3′,4′-dihydroxy-phenyl-1,3,4-thiadiazole] | 62 | -16.8 ± 6.9 | -28.4 ± 10.1 | -19.5 ± 5.6 | -8.1 ± 3.2 | -32.3 ± 7.8 |  | 18.3 | 99.9 ± 17.5 | 19.2 ± 6.4 |  | 16.7 ± 1 |  | -0.1 ± 6.2 | 145.9 ± 0.7 | 78.6 |  | 
3 | Nc1cccc(-c2ccc(-c3nnc(N)s3)cc2)c1 [2b] |  | 44.6 ± 1.5 | -16.1 ± 6.6 | 1.9 ± 1 | 32 ± 3.7 | -3.9 ± 13.3 |  |  | 73.4 ± 2.5 | 9.1 ± 4.4 |  | 16.2 ± 0.5 |  | -1 ± 2.2 | 137 ± 11.1 | 33.4 | 17 | 
4 | N#Cc1ccc(CNc2nnc(N)s2)cc1 [4h] | 17 | 17.1 ± 4.4 | 62.4 ± 2.9 | 15 ± 1.4 | 7.2 ± 12.7 | -2 ± 6.3 |  |  | 107 ± 24.9 | 82.6 ± 11.8 |  | 34.6 ± 3 | 70 | -0.1 ± 9.4 | 105 ± 2.3 | < 0 |  | 
5 | Nc1nnc(/C=C/c2ccccc2)s1 [3h] |  | 25.2 ± 1.1 | -22.1 ± 8 | 4.1 ± 5.9 | 45.9 ± 5.5 | 7.2 ± 9.8 |  | 58 | 111 ± 42 | 58.7 ± 4.9 |  | 34.3 ± 1.2 |  | -1.3 ± 6.6 | 138 ± 5.6 | 82.7 | 15 | 
6 | COC(=O)C(Cc1ccccc1)Nc1nnc(N)s1 (centres unmarked) [4p, Methyl 2G((5GaminoG1,3,4GthiadiazolG2Gyl)amino)G3Gphenylpropanoate] | 9 | -1.5 ± 4.3 | 47.4 ± 3.3 | -10.9 ± 3 | -12.5 ± 6.8 | -27.4 ± 13.1 |  |  | 114 ± 12.7 | 28.7 ± 10.5 |  | 3.9 ± 0.3 |  | 1.72 ± 5.2 | 126 ± 3.5 | 0.4 |  | 
7 | COc1cccc(CNc2nnc(N)s2)c1 [4i] | 28 | 15.9 ± 1.1 | 105.2 ± 0.1 | 33.5 ± 1.7 | 87.7 ± 0.4 | 45.9 ± 0.8 | 95.6 | 16 | 129 ± 14.1 | 108 ± 9.6 |  | 31 ± 1.3 | 56 | -15.3 ± 24.3 | 107 ± 5.8 |  |  | 
8 | COc1ccccc1-c1nnc(N)s1 [1h] | 14 | 21.5 ± 4.6 | -31.5 ± 9.5 | -32.3 ± 3.6 | -9.4 ± 8 | -20.9 ± 16.1 |  |  | 129 ± 10.3 | 5.2 ± 6.6 |  | 24.1 ± 1 |  | -7.8 ± 2.6 | 126 ± 17.3 | < 0 |  | 
9 | COc1ccc(-c2nnc(N)s2)cc1OC [1c] | 42 | 14.1 ± 3.4 | -45.9 ± 3.1 | -25.9 ± 1.5 | -7.1 ± 6 | -26.1 ± 22.5 |  |  | 110 ± 33.5 | 13.6 ± 4 |  | 9.4 ± 0.3 |  | -7.3 ± 5.2 | 105 ± 5.3 | 64.3 |  | 
10 | Nc1nnc(-c2cccc(-c3ccccc3)c2)s1 [2c] |  | 101 ± 1.4 | 48.2 ± 2.3 | 24.1 ± 0.4 | 59.5 ± 3.7 | 65.1 ± 6.8 |  |  | 87.2 ± 13.8 | 83.7 ± 2.5 |  | 25.2 ± 1.4 |  | 0 | 115 ± 5.3 | 14.4 |  | 23
11 | Nc1nnc(N)s1 [4a] | 36 | 40.5 ± 3 | -15.9 ± 8.6 | 46 ± 1.7 | 53.4 ± 4.4 | 62.3 ± 8.3 |  |  | 81.3 ± 13.5 | 4.7 ± 3.6 |  | 14.2 ± 0.8 |  | 1.7 ± 6.6 | 113 ± 4.4 | < 0 |  | 
12 | Nc1nnc(Cc2ccccc2)s1 [3b] | 6 | -10.2 ± 1.6 | -41.7 ± 3.9 | -20.4 ± 1.8 | -23.7 ± 5.9 | -42.6 ± 5.5 |  |  | 120 ± 1.7 | 11.1 ± 5.2 |  | 8.1 ± 0.2 |  | -7.4 ± 11.1 | 125 ± 4.8 | < 0 |  | 
